# Test results taken from patent publication US10966426B2, “Herbicidal compositions comprising phenylpyrimidines” (BASF SE, priority 2016, dated 2021).
# Assays:
# Type in all cases: in vivo
# Galium aparine [1] = assay: greenhouse post-emergence treatment, GALAP; settings: Galium aparine, 480 h, Table X12, 20 DAT, GALAP, solo isoproturon (SC 500 g/l) 500 gai/ha
# How it was run: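 Seeds sown per species in pots of loamy sand; seedlings either grown in place or transplanted days before treatment. Post-emergence spray of water-based liquor at 3–15 cm height. Injury rated 0–100 over 2 to 4 weeks.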
# Alopecurus myosuroides = assay: greenhouse pre-emergence treatment, ALOMY
# Text: (§1) The culture containers used were plastic pots containing loamy sand with approximately 3.0% of humus as substrate. The seeds of the test plants were sown separately for each species.
# (§2) For the pre-emergence treatment, the active compounds, suspended or emulsified in water, were applied directly after sowing by means of finely distributing nozzles. The containers were irrigated gently to promote germination and growth and subsequently covered with transparent plastic hoods until the plants had rooted. This cover caused uniform germination of the test plants unless this was adversely affected by the active compounds.
# (§3) Depending on the species, the plants were kept at 10-25° C. and 20-35° C., respectively.
# (§4) The test period extended over 2 to 4 weeks. During this time, the plants were tended and their response to the individual treatments was evaluated.
# (§5) Evaluation was carried out using a scale from 0 to 100. 100 means no emergence of the plants, or complete destruction of at least the above-ground parts, and 0 means no damage or normal course of growth. A good herbicidal activity is given at values of at least 70, and very good herbicidal activity is given at values of at least 85.
# (§6) The respective stated components A and B, and if appropriate, C were formulated as a 10% by weight strength emulsion concentrate and, with addition of the amount of solvent system, introduced into the spray liquor used for applying the active compound. In the examples, the solvent used was water.
# (§7) In the examples below, using the method of S. R. Colby (1967) “Calculating synergistic and antagonistic responses of herbicide combinations”, Weeds 15, p. 22ff., the value E, which is expected if the activity of the individual active compounds is only additive, was calculated. E=X+Y−(X·Y/100) where X=effect in percent using herbicide A at an application rate a; • Y=effect in percent using herbicide B at application rate b; • E=expected effect (in %) of herbicide A+herbicide B at application rates a+b.
# Setaria viridis = assay: greenhouse pre-emergence treatment, SETVI; settings: for % activity: SETVI
# Text: as §1, §2, §3, §4, §5, §6, §7
# Echinocloa crus-galli = assay: greenhouse post-emergence treatment, ECHCG; settings: Table X12, 20 DAT, ECHCG, solo isoproturon (SC 500 g/l) 125 gai/ha
# Protocol: as §1
# For the post-emergence treatment, the test plants were grown to a plant height of from 3 to 15 cm, depending on the plant habit, and only then treated with the active compounds which had been suspended or emulsified in water. To this end, the test plants were either sown directly, and grown in the same containers, or they were first grown separately as seedlings and transplanted into the test containers a few days prior to treatment.
# as §3, §4, §5, §6, §7
# Papaver rhoeas = assay: greenhouse pre-emergence treatment, PAPRH; settings: 20 DAT
# Text: as §1, §2, §3, §4, §5, §6, §7
# Avena fatua = assay: greenhouse pre-emergence treatment, AVEFA; settings: 20 DAT
# Text: as §1, §2, §3, §4, §5, §6, §7
# Poa annua = assay: greenhouse pre-emergence treatment, POAAN; settings: 20 DAT
# Text: as §1, §2, §3, §4, §5, §6, §7
# Apera spica-venti = assay: greenhouse pre-emergence treatment, APESV; settings: 20 DAT
# Text: as §1, §2, §3, §4, §5, §6, §7
# Brachiaria decumbens = assay: greenhouse pre-emergence treatment, BRADC; settings: Urochloa decumbens, 480 h, 20 DAT
# Text: as §1, §2, §3, §4, §5, §6, §7
# Lolium multiflorum = assay: greenhouse pre-emergence treatment, LOLMU; settings: Lolium multiflorum, 480 h, 20 DAT
# Text: as §1, §2, §3, §4, §5, §6, §7
# Digitaria sanguinalis = assay: greenhouse pre-emergence treatment, DIGSA; settings: Digitaria sanguinalis, 480 h, 20 DAT
# Text: as §1, §2, §3, §4, §5, §6, §7
# Helianthus annuus = assay: greenhouse pre-emergence treatment, HELAN; settings: HELAN, 20 DAT
# Text: as §1, §2, §3, §4, §5, §6, §7
# Bromus sterilis = assay: greenhouse pre-emergence treatment, BROST; settings: BROST, 20 DAT; for pest or weed control at 62.5 g/ha: Bromus sterilis, 480 h
# Text: as §1, §2, §3, §4, §5, §6, §7
# Galium aparine [2] = assay: greenhouse pre-emergence treatment, GALAP
# Text: as §1, §2, §3, §4, §5, §6, §7
# Ambrosia elatior = assay: greenhouse pre-emergence treatment, AMBEL
# Text: as §1, §2, §3, §4, §5, §6, §7
# Stellaria media = assay: greenhouse pre-emergence treatment, STEME; settings: 20 DAT
# Text: as §1, §2, §3, §4, §5, §6, §7
# Polygonum convolvulus = assay: greenhouse pre-emergence treatment, POLCO; settings: Fallopia convolvulus, 480 h, 20 DAT, saflufenacil solo 12.5 gai/ha
# Text: as §1, §2, §3, §4, §5, §6, §7
# [3] = Table X13, 20 DAT, solo isoproturon (SC 500 g/l) 125 gai/ha
# [4] = solo quinmerac (WP 50%) 250 gai/ha
# [5] = solo quinmerac (WP 50%) 62.5 gai/ha
# [6] = solo saflufenacil (SC 342 g/l) 6.25 gai/ha, 20 DAT
# [7] = solo saflufenacil (SC 342 g/l) 25 gai/ha, 20 DAT
# [8] = solo dimethenamid (EC 720 g/l) 62.5 gai/ha
# [9] = dimethenamid solo (EC 720 g/l), 62.5 gai/ha
compound,measurement,setting,value
CC(C)c1ccc(NC(=O)N(C)C)cc1 [isoproturon],"pest or weed control at 500000 µg/mL, 500 g/ha",Galium aparine [1],30%
same,% activity,Alopecurus myosuroides; [3],0%
same,% activity,Setaria viridis; [3],0%
same,% activity,"Setaria viridis; Table X13, 20 DAT, solo isoproturon (SC 500 g/l) 500 gai/ha",75%
same,% activity,Echinocloa crus-galli,40%
Cc1cnc2c(C(=O)O)c(Cl)ccc2c1 [quinmerac],% activity,Papaver rhoeas; [4],95%
same,pest or weed control at 31.25 g/ha,"Avena fatua; Avena fatua, 480 h, AVEFA, solo quinmerac (WP 50%) 31.25 gai/ha",0%
same,pest or weed control at 125 g/ha,"Avena fatua; Avena fatua, 480 h, AVEFA, solo quinmerac (WP 50%) 125 gai/ha",0%
same,% activity,Poa annua; [5],0%
same,% activity,Poa annua; solo quinmerac (WP 50%) 125 gai/ha,0%
same,% activity,Poa annua; [4],0%
same,% activity,Apera spica-venti; [5],0%
same,% activity,Apera spica-venti; [4],25%
same,pest or weed control at 62.5 g/ha,"Brachiaria decumbens; quinmerac solo (WP 50%), 62.5 gai/ha, BRADC",0%
same,pest or weed control at 125 g/ha,"Brachiaria decumbens; quinmerac solo (WP 50%), 125 gai/ha, BRADC",0%
same,pest or weed control at 250 g/ha,"Brachiaria decumbens; quinmerac solo (WP 50%), 250 gai/ha, BRADC",30%
same,pest or weed control at 250 g/ha,"Lolium multiflorum; LOLMU, solo quinmerac (WP 50%) 250 gai/ha",0%
same,pest or weed control at 31.25 g/ha,"Digitaria sanguinalis; DIGSA, solo quinmerac (WP 50%) 31.25 gai/ha",0%
same,pest or weed control at 62.5 g/ha,"Digitaria sanguinalis; DIGSA, solo quinmerac (WP 50%) 62.5 gai/ha",0%
same,pest or weed control at 125 g/ha,"Digitaria sanguinalis; DIGSA, solo quinmerac (WP 50%) 125 gai/ha",0%
same,plant injury at 125 g/ha,"Helianthus annuus; Helianthus annuus, 480 h, solo quinmerac (WP 50%) 125 gai/ha",0%
same,plant injury at 62.5 g/ha,"Helianthus annuus; Helianthus annuus, 480 h, quinmerac solo (WP 50%), 62.5 gai/ha",0%
same,pest or weed control at 62.5 g/ha,Bromus sterilis; [5],0%
same,pest or weed control at 125 g/ha,"Galium aparine [2]; Galium aparine, 480 h, GALAP, 20 DAT, solo quinmerac (WP 50%) 125 gai/ha",95%
same,pest or weed control at 250 g/ha,"Ambrosia elatior; Ambrosia artemisiifolia, 480 h, AMBEL, 20 DAT, solo quinmerac (WP 50%) 250 gai/ha",0%
same,% activity,Stellaria media; [4],0%
CC(C)N(C)S(=O)(=O)NC(=O)c1cc(-n2c(=O)cc(C(F)(F)F)n(C)c2=O)c(F)cc1Cl [saflufenacil],inhibition at 6.25 g/ha,"Avena fatua; Avena fatua, 480 h, saflufenacil solo 6.25 gai/ha",0%
same,inhibition at 12.5 g/ha,Polygonum convolvulus,90%
same,% activity,Alopecurus myosuroides; [6],0%
same,% activity,"Alopecurus myosuroides; solo saflufenacil (SC 342 g/l) 12.5 gai/ha, 20 DAT",0%
same,% activity,Alopecurus myosuroides; [7],0%
same,% activity,Setaria viridis; [6],25%
same,% activity,Setaria viridis; [7],65%
same,inhibition at 6.25 g/ha,"Setaria viridis; Setaria viridis, 480 h, 20 DAT, saflufenacil solo 6.25 gai/ha",25%
same,inhibition at 12.5 g/ha,"Setaria viridis; Setaria viridis, 480 h, 20 DAT, saflufenacil solo 12.5 gai/ha",40%
same,inhibition at 25 g/ha,"Setaria viridis; Setaria viridis, 480 h, 20 DAT, saflufenacil solo 25 gai/ha",65%
same,inhibition at 50 g/ha,"Setaria viridis; Setaria viridis, 480 h, 20 DAT, saflufenacil solo 50 gai/ha",90%
same,"% herbicidal activity (weed control, 0-100 scale) at 6.25 g/ha",Brachiaria decumbens; saflufenacil solo 6.25 gai/ha,10%
same,"% herbicidal activity (weed control, 0-100 scale) at 12.5 g/ha",Brachiaria decumbens; saflufenacil solo 12.5 gai/ha,20%
same,inhibition at 6.25 g/ha,Lolium multiflorum; saflufenacil solo 6.25 gai/ha,10%
same,inhibition at 6.25 g/ha,Digitaria sanguinalis; saflufenacil solo 6.25 gai/ha,10%
same,inhibition at 25 g/ha,Digitaria sanguinalis; saflufenacil solo 25 gai/ha,35%
same,"% herbicidal activity (weed control, 0-100 scale) at 12.5 g/ha","Galium aparine [2]; Galium aparine, 480 h, 20 DAT, saflufenacil solo 12.5 gai/ha",80%
same,pest or weed control at 30 g/ha,"Galium aparine [2]; Galium aparine, 480 h, Table X11, 20 DAT, GALAP, solo saflufenacil (title: flumioxazin, WG 51%) 30 gai/ha, read-out: % activity",65%
same,"percent weed control (herbicidal activity, 0-100 scale) at 6.25 g/ha","Ambrosia elatior; Ambrosia artemisiifolia, 480 h, 20 DAT, saflufenacil solo 6.25 gai/ha",45%
same,pest or weed control at 3.75 g/ha,"Ambrosia elatior; Ambrosia artemisiifolia, 480 h, Table X11, 20 DAT, AMBEL, solo saflufenacil (title: flumioxazin, WG 51%) 3.75 gai/ha",0%
COCC(C)N(C(=O)CCl)c1c(C)csc1C (stereo not drawn) [dimethenamid],% activity,Papaver rhoeas; [8],90%
same,% activity,Papaver rhoeas; [9],90%
same,% activity,"Papaver rhoeas; dimethenamid solo (EC 720 g/l), 125 gai/ha",90%
same,% activity,"Avena fatua; AVEFA, solo dimethenamid (EC 720 g/l) 62.5 gai/ha",10%
same,pest or weed control at 62.5 g/ha,"Avena fatua; Avena fatua, 480 h, dimethenamid solo (EC 720 g/l), 62.5 gai/ha, AVEFA",10%
same,pest or weed control at 125 g/ha,"Avena fatua; Avena fatua, 480 h, dimethenamid solo (EC 720 g/l), 125 gai/ha, AVEFA",50%
same,pest or weed control at 250 g/ha,"Avena fatua; Avena fatua, 480 h, dimethenamid solo (EC 720 g/l), 250 gai/ha, AVEFA",65%
same,% activity,"Alopecurus myosuroides; dimethenamid solo (EC 720 g/l), 125 gai/ha, 20 DAT",60%
same,% activity,"Alopecurus myosuroides; dimethenamid solo (EC 720 g/l), 250 gai/ha, 20 DAT",65%
same,pest or weed control at 31.25 g/ha,"Brachiaria decumbens; dimethenamid solo (EC 720 g/l), 31.25 gai/ha, BRADC",60%
same,pest or weed control at 62.5 g/ha,"Lolium multiflorum; dimethenamid solo (EC 720 g/l), 62.5 gai/ha, LOLMU",80%
same,% activity,Helianthus annuus; solo dimethenamid (EC 720 g/l) 250 gai/ha,35%
same,plant injury at 250 g/ha,"Helianthus annuus; Helianthus annuus, 480 h, dimethenamid solo (EC 720 g/l), 250 gai/ha",35%
same,% activity,Bromus sterilis; [8],80%
same,pest or weed control at 62.5 g/ha,Bromus sterilis; [9],80%
same,% activity,"Galium aparine [2]; GALAP, 20 DAT, solo dimethenamid (EC 720 g/l) 31.25 gai/ha",50%
same,% activity,"Galium aparine [2]; GALAP, 20 DAT, solo dimethenamid (EC 720 g/l) 62.5 gai/ha",60%
same,% activity,"Galium aparine [2]; GALAP, 20 DAT, solo dimethenamid (EC 720 g/l) 125 gai/ha",50%
same,pest or weed control at 31.25 g/ha,"Galium aparine [2]; Galium aparine, 480 h, dimethenamid solo (EC 720 g/l), 31.25 gai/ha, 20 DAT, GALAP",50%
same,pest or weed control at 62.5 g/ha,"Galium aparine [2]; Galium aparine, 480 h, dimethenamid solo (EC 720 g/l), 62.5 gai/ha, 20 DAT, GALAP",60%
same,pest or weed control at 125 g/ha,"Galium aparine [2]; Galium aparine, 480 h, dimethenamid solo (EC 720 g/l), 125 gai/ha, 20 DAT, GALAP",50%
same,% activity,"Ambrosia elatior; AMBEL, 20 DAT, solo dimethenamid (EC 720 g/l) 125 gai/ha",20%
same,% activity,"Ambrosia elatior; AMBEL, 20 DAT, solo dimethenamid (EC 720 g/l) 250 gai/ha",30%
same,pest or weed control at 31.25 g/ha,"Ambrosia elatior; Ambrosia artemisiifolia, 480 h, AMBEL, 20 DAT, solo dimethenamid (EC 720 g/l) 31.25 gai/ha",0%
same,pest or weed control at 62.5 g/ha,"Ambrosia elatior; Ambrosia artemisiifolia, 480 h, AMBEL, 20 DAT, solo dimethenamid (EC 720 g/l) 62.5 gai/ha",0%
same,pest or weed control at 125 g/ha,"Ambrosia elatior; Ambrosia artemisiifolia, 480 h, dimethenamid solo (EC 720 g/l), 125 gai/ha, 20 DAT, AMBEL",20%
same,pest or weed control at 250 g/ha,"Ambrosia elatior; Ambrosia artemisiifolia, 480 h, dimethenamid solo (EC 720 g/l), 250 gai/ha, 20 DAT, AMBEL",30%
same,% activity,"Stellaria media; dimethenamid solo (EC 720 g/l), 31.25 gai/ha",80%
same,% activity,Stellaria media; [9],90%
